This is an account of results in patent publication US20180334436A1 (VIIV HEALTHCARE UK LIMITED, priority 2015, published 2018).

As a reminder, the IC50 is the concentration at which inhibition is half-maximal.

The assay deals with HIV. The assay can be described thus: MT4 assay (anti-HIV activity). It counts as cell-based. The settings on record: Human immunodeficiency virus 1, 96 h, antiviral HIV activity in HTLV-1 transformed cell line MT-4; luciferase read 96 hours later; 10 point dose response. How it is done:
Antiviral HIV activity and cytotoxicity values for compounds of the invention from Table 1 were measured in parallel in the HTLV-1 transformed cell line MT-4 based on the method previously described (Hazen et al., 2007, In vitro antiviral activity of the novel, tyrosyl-based human immunodeficiency virus (HIV) type 1 protease inhibitor brecanavir (GW640385) in combination with other antiretrovirals and against a panel of protease inhibitor-resistant HIV (Hazen et al., “In vitro antiviral activity of the novel, tyrosyl-based human immunodeficiency virus (HIV) type 1 protease inhibitor brecanavir (GW640385) in combination with other antiretrovirals and against a panel of protease inhibitor-resistant HIV”, Antimicrob. Agents Chemother. 2007, 51: 3147-3154; and Pauwels et al., “Sensitive and rapid assay on MT-4 cells for the detection of antiviral compounds against the AIDS virus”, J. of Virological Methods 1987, 16: 171-185).
Luciferase activity was measured 96 hours later by adding a cell titer glo (Promega, Madison, Wis.). Percent inhibition of cell protection data was plotted relative to no compound control. Under the same condition, cytotoxicity of the compounds was determined using cell titer Glo™ (Promega, Madison, Wis.). IC50s were determined from a 10 point dose response curve using 3-4-fold serial dilution for each compound, which spans a concentration range >1000 fold.
These values are plotted against the molar compound concentrations using the standard four parameter logistic equation:
y=((Vmax*x̂n)/(K̂n+x̂n))+Y2
Y2=minimum y n=slope factor
Vmax=maximum y x=compound concentration [M]
As for `COc1ccc(C(=O)N2CCc3c(C)c([C@H](OC(C)(C)C)C(=O)O)c(-c4cc(F)c5c(c4C)CCCO5)c(C)c3C2)cc1C` (atropisomer, axis not shown) [Example 97, (S)-2-(tert-butoxy)-2-((R)-7-(8-fluoro-5-methylchroman-6-yl)-2-(4-methoxy-3-methylbenzoyl)-5,8-dimethyl-1,2,3,4-tetrahydroisoquinolin-6-yl)acetic Acid], the half-inhibitory concentration (IC50) is 36 nM.

On to `Cc1c(-c2c(C)c3c(c(C)c2[C@H](OC(C)(C)C)C(=O)O)CC(=O)N(c2cccc(F)c2)C3)cc(F)c2c1CCCO2` (atropisomer, axis not shown) [Example 103, (S)-2-(tert-Butoxy)-2-((R)-7-(8-fluoro-5-methylchroman-6-yl)-2-(3-fluorophenyl)-5,8-dimethyl-3-oxo-1,2,3,4-tetrahydroisoquinolin-6-yl)acetic Acid], for which the half-maximal inhibitory concentration (IC50) is 2 nM.

As for `Cc1c(-c2c(C)c3c(c(C)c2[C@H](OC(C)(C)C)C(=O)O)CC(=O)N(C2CCCCC2)C3)cc(F)c2c1CCCO2` (atropisomer, axis not shown) [Example 104, (S)-2-(tert-butoxy)-2-((R)-2-cyclohexyl-7-(8-fluoro-5-methylchroman-6-yl)-5,8-dimethyl-3-oxo-1,2,3,4-tetrahydroisoquinolin-6-yl)acetic Acid], the IC50 amounted to 2 nM.

In the case of `Cc1c(-c2c(C)c3c(c(C)c2[C@H](OC(C)(C)C)C(=O)O)CC(=O)N(C2CCC(C)(C)CC2)C3)cc(F)c2c1CCCO2` (atropisomer, axis not shown) [Example 105, (S)-2-(tert-butoxy)-2-((R)-2-(4,4-dimethylcyclohexyl)-7-(8-fluoro-5-methylchroman-6-yl)-5,8-dimethyl-3-oxo-1,2,3,4-tetrahydroisoquinolin-6-yl)acetic Acid], the IC50 is 2 nM.

With `Cc1c(-c2c(C)c3c(c(C)c2[C@H](OC(C)(C)C)C(=O)O)CC(=O)N(CC2CCCCC2)C3)cc(F)c2c1CCCO2` (atropisomer, axis not shown) [Example 106, (S)-2-(tert-butoxy)-2-((R)-2-(cyclohexylmethyl)-7-(8-fluoro-5-methylchroman-6-yl)-5,8-dimethyl-3-oxo-1,2,3,4-tetrahydroisoquinolin-6-yl)acetic Acid], the IC50 came out at 3 nM.

As for `COc1c(F)cccc1N1Cc2c(C)c(-c3cc(F)c4c(c3C)CCCO4)c([C@H](OC(C)(C)C)C(=O)O)c(C)c2CC1=O` (atropisomer, axis not shown) [Example 107, (S)-2-(tert-butoxy)-2-((R)-2-(3-fluoro-2-methoxyphenyl)-7-(8-fluoro-5-methylchroman-6-yl)-5,8-dimethyl-3-oxo-1,2,3,4-tetrahydroisoquinolin-6-yl)acetic Acid], the concentration for half-maximal inhibition (IC50) is 2 nM.

Regarding `Cc1c(-c2c(C)c3c(c(C)c2[C@H](OC(C)(C)C)C(=O)O)CC(=O)N(C2CCOCC2)C3)cc(F)c2c1CCCO2` (atropisomer, axis not shown) [Example 108, (S)-2-(tert-butoxy)-2-((R)-7-(8-fluoro-5-methylchroman-6-yl)-5,8-dimethyl-3-oxo-2-(tetrahydro-2H-pyran-4-yl)-1,2,3,4-tetrahydroisoquinolin-6-yl)acetic Acid], the IC50 worked out at 13 nM.

Turning to `Cc1c(-c2c(C)c3c(c(C)c2[C@H](OC(C)(C)C)C(=O)O)C(C)(C)C(=O)N(C2CCCCC2)C3)cc(F)c2c1CCCO2` (atropisomer, axis not shown) [Example 109], the half-inhibitory concentration (IC50) was 4 nM.

As for `Cc1c(-c2c(C)c3c(c(C)c2[C@H](OC(C)(C)C)C(=O)O)CC(=O)N(CC(C)C)C3)cc(F)c2c1CCCO2` (atropisomer, axis not shown) [Example 110], the IC50 is 3 nM.

Turning to `Cc1c(-c2c(C)c3c(c(C)c2[C@H](OC(C)(C)C)C(=O)O)CC(=O)N(C2CCN(C)CC2)C3)cc(F)c2c1CCCO2` (atropisomer, axis not shown) [Example 112, (S)-2-(tert-butoxy)-2-((R)-7-(8-fluoro-5-methylchroman-6-yl)-5,8-dimethyl-2-(1-methylpiperidin-4-yl)-3-oxo-1,2,3,4-tetrahydroisoquinolin-6-yl)acetic Acid], the IC50 stood at 1040 nM.

Turning to `Cc1c(-c2c(C)c3c(c(C)c2[C@H](OC(C)(C)C)C(=O)O)CC(=O)N(CC2CCOCC2)C3)cc(F)c2c1CCCO2` (atropisomer, axis not shown) [Example 113], the IC50 was 14 nM.

`Cc1c(-c2c(C)c3c(c(C)c2[C@H](OC(C)(C)C)C(=O)O)CC(=O)N(C2CCC(F)(F)CC2)C3)cc(F)c2c1CCCO2` (atropisomer, axis not shown) [Example 114, (S)-2-(tert-butoxy)-2-((R)-2-(4,4-difluorocyclohexyl)-7-(8-fluoro-5-methylchroman-6-yl)-5,8-dimethyl-3-oxo-1,2,3,4-tetrahydroisoquinolin-6-yl)acetic Acid]: the half-maximal inhibitory concentration (IC50) came out at 3 nM.

In the case of `Cc1c(-c2c(C)c3c(c(C)c2[C@H](OC(C)(C)C)C(=O)O)CC(=O)N(C2CCN(C(=O)OC(C)(C)C)CC2)C3)cc(F)c2c1CCCO2` (atropisomer, axis not shown) [Example 115], the IC50 amounted to 116 nM.

As to `Cc1c(-c2c(C)c3c(c(C)c2[C@H](OC(C)(C)C)C(=O)O)CC(=O)N(C2CCCCC2)C3)cc(Cl)c2c1CCCO2` (atropisomer, axis not shown) [Example 118], the IC50 is 4 nM.

Turning to `Cc1c(-c2c(C)c3c(c(C)c2[C@H](OC(C)(C)C)C(=O)O)CC(=O)N(C2CCCCC2)C3)ccc2c1NCCO2` (atropisomer, axis not shown) [Example 119, (S)-2-(tert-butoxy)-2-((R)-2-cyclohexyl-5,8-dimethyl-7-(5-methyl-3,4-dihydro-2H-benzo[b][1,4]oxazin-6-yl)-3-oxo-1,2,3,4-tetrahydroisoquinolin-6-yl)acetic Acid], the IC50 turned out to be 8 nM.

As for `Cc1c(-c2c(C)c3c(c(C)c2[C@H](OC(C)(C)C)C(=O)O)CC(=O)N(C2CCCCC2)C3)ccc2c1CCCO2` (atropisomer, axis not shown) [Example 120, (S)-2-(tert-butoxy)-2-((R)-2-cyclohexyl-5,8-dimethyl-7-(5-methylchroman-6-yl)-3-oxo-1,2,3,4-tetrahydroisoquinolin-6-yl)acetic Acid], the IC50 came to 2 nM.

With `Cc1c(-c2c(C)c3c(c(C)c2[C@H](OC(C)(C)C)C(=O)O)CCN(C2CCCCC2)C3)cc(F)c2c1CCCO2` (atropisomer, axis not shown; (M)) [Example 67, (2S)(M)-2-(tert-butoxy)-2-(2-cyclohexyl-7-(8-fluoro-5-methylchroman-6-yl)-5,8-dimethyl-1,2,3,4-tetrahydroisoquinolin-6-yl)acetic Acid], the IC50 amounted to 5 nM.

Turning to `Cc1c(-c2c(C)c3c(c(C)c2[C@H](OC(C)(C)C)C(=O)O)CCN(S(=O)(=O)C2CCCCC2)C3)ccc2c1CCCO2` (atropisomer, axis not shown; (M)) [Example 83, (2S)(M)-2-(tert-butoxy)-2-(-2-(cyclohexylsulfonyl)-5,8-dimethyl-7-(5-methylchroman-6-yl)-1,2,3,4-tetrahydroisoquinolin-6-yl)acetic Acid], the half-inhibitory concentration (IC50) was 46 nM.

Consider `Cc1c(-c2c(C)c3c(c(C)c2[C@H](OC(C)(C)C)C(=O)O)CCN(C2CCCCC2)C3)ccc2c1CCCO2` (atropisomer, axis not shown; (M)) [Example 84, (S)(M)-2-(tert-butoxy)-2-(2-cyclohexyl-5,8-dimethyl-7-(5-methylchroman-6-yl)-1,2,3,4-tetrahydroisoquinolin-6-yl)acetic Acid], for which the IC50 is 5 nM.

Regarding `Cc1c(-c2c(C)c3c(c(C)c2[C@H](OC(C)(C)C)C(=O)O)CCN(S(=O)(=O)C2CCCCC2)C3)cc(Cl)c2c1CCCO2` (atropisomer, axis not shown; (M)) [Example 88, (S)(M)-2-(tert-butoxy)-2-(7-(8-chloro-5-methylchroman-6-yl)-2-(cyclohexylsulfonyl)-5,8-dimethyl-1,2,3,4-tetrahydroisoquinolin-6-yl)acetic Acid], the IC50 was found to be 36 nM.

In the case of `Cc1c(-c2c(C)c3c(c(C)c2[C@H](OC(C)(C)C)C(=O)O)CCN(C2CCCCC2)C3)cc(Cl)c2c1CCCO2` (atropisomer, axis not shown; (M)) [Example 89, (S)(M)-2-(tert-butoxy)-2-(7-(8-chloro-5-methylchroman-6-yl)-2-cyclohexyl-5,8-dimethyl-1,2,3,4-tetrahydroisoquinolin-6-yl)acetic Acid], the IC50 was 12 nM.

In the case of `Cc1c(-c2c(C)c3c(c(C)c2[C@H](OC(C)(C)C)C(=O)O)CCN(S(=O)(=O)C2CCCCC2)C3)ccc2c1NCCO2` (atropisomer, axis not shown; (M)) [Example 95, (S)(M)-2-(tert-butoxy)-2-(2-(cyclohexylsulfonyl)-5,8-dimethyl-7-(5-methyl-3,4-dihydro-2H-benzo[b][1,4]oxazin-6-yl)-1,2,3,4-tetrahydroisoquinolin-6-yl)acetic Acid], the IC50 was 9 nM.

Turning to `Cc1c(-c2c(C)c3c(c(C)c2[C@H](OC(C)(C)C)C(=O)O)CC(=O)N(Cc2ccccc2)C3)cc(F)c2c1CCCO2` (atropisomer, axis not shown; (M)) [Example 102, (S)(M)-2-(2-benzyl-7-(8-fluoro-5-methylchroman-6-yl)-5,8-dimethyl-3-oxo-1,2,3,4-tetrahydroisoquinolin-6-yl)-2-(tert-butoxy)acetic Acid], the IC50 came out at 3 nM.
